Measured values from patent US8785483B2, “Methods for treating COPD” (The Board of Regents of the University of Texas System, priority 2010, dated 2014).

What was measured:
Muc5AC = experiment: Western blot of Muc5AC in IL-13-treated SAEC monolayer; type: cell-based, human; settings: IL-13 48 h, immunoblotting
Experimental: FIGS. 6A-6B. AR inhibition prevents IL-13-induced expression of Mucin and transcription factor SPDEF in airway epithelial cell monolayer. (A) The airway epithelial cell monolayer at ALI was serum starved without or with fidarestat and incubated with IL-13 for 18 h. Total RNA was isolated and subsequently RT-PCR was performed to assess the expression of Muc5AC and SPDEF. The bar diagrams show densitometric analysis of the corresponding blots (n=4). *p<0.001 vs Control; **p<0.001 vs IL-13; (B) The monolayer of ciliated airway cells at ALI was treated with AR inhibitor for 24 h and subsequently incubated with IL-13 for 24 or 48 h. At the end of incubation, cell lysate was prepared and subjected to western blotting using antibodies against Muc5AC, Muc5B, and SPDEF. The membranes were stripped and re-probed with antibodies against GAPDH to show the equal loading of protein. A representative blot is shown (n=4). *p<0.0001 vs Control; **p<0.001 vs IL-13. […] Protein levels were determined using Bradford reagent (Biorad, Hercules, Calif.). […] The blots were then washed, exposed to HRP-conjugated secondary antibodies (1:5,000 dilution) for 1 h, and the antigen-antibody complex was detected by enhanced chemiluminescence (Amersham Pharmacia Biotech, Piscataway, N.J., USA). […]

STAT-6 = experiment: RWE-induced STAT-6 phosphorylation in mouse lung epithelium (immunostaining); type: in vivo; settings: RWE-sensitized and challenged mice, fidarestat 7 mg/kg body wt/day in drinking water, 20 h after challenge
Experimental: FIGS. 9A-9B. AR inhibition prevents phosphorylation of STAT-6 in mouse lung epithelium. The mice were sensitized and challenged with PBS or RWE, without or with AR inhibitor and 20 h later lungs were perfused and fixed with 4% paraformaldehyde, embedded in paraffin, and sectioned to […]. The sections were immunostained with p-STAT-6 specific antibodies using immunofluoroscence secondary antibodies (A) or DAB-based HRP conjugated antibodies counterstained with hematoxylin and eosin (B). Photomicrographs were acquired by fluorescence or light microscopy. A representative field for each group is shown (magnification: 200×). […] RWE, ragweed pollen extract; ARI, aldose reductase inhibitor.
Wild type C57BL/6 and Balb/cJ mice were purchased from Harlan Sprague-Dawley (San Diego, Calif., USA) and AR null mice on C57BL/6 background were bread by us at Animal resource center, UTMB, Galveston, Tex. Six-eight weeks old female mice were sensitized with RWE as previously described (Hwang et al., FASEB J. 19: 795-797, 2005). […]
Approximately 20 h after RWE-challenge, mice are killed, and their lungs perfused and fixed with 4% paraformaldehyde, embedded in paraffin, and 5 μm sections were obtained. […] Photomicrographs were acquired by a Photometrix CoolSNAP Fx camera mounted on a NIKON Eclipse TE 200 UV microscope using fluorescence or bright-field microscopy, respectively.

[1] = tested on: goblet cell metaplasia in mice lungs; experiment: RWE-induced goblet cell metaplasia in mice lungs (PAS stain); type: in vivo; settings: RWE-sensitized and challenged mice, fidarestat 7 mg/kg body wt/day in drinking water, 72 h after challenge
Experimental: FIGS. 10A-10B. Inhibition or deficiency of AR prevents RWE-induced goblet cell metaplasia in mice lungs. RWE-sensitized normal and AR-null mice were challenged with RWE and 72 h later the lungs were harvested from mice treated without or with AR inhibitor (A) or AR-null mice (B), perfused and fixed with 4% paraformaldehyde and embedded in paraffin. The sections were stained with PAS stain and observed under light microscope and photomicrographs were acquired. A representative photomicrograph from each group is shown (n=4). Magnification 200× (A); 400× (B).
Wild type C57BL/6 and Balb/cJ mice were purchased from Harlan Sprague-Dawley (San Diego, Calif., USA) and AR null mice on C57BL/6 background were bread by us at Animal resource center, UTMB, Galveston, Tex. Six-eight weeks old female mice were sensitized with RWE as previously described (Hwang et al., FASEB J. 19: 795-797, 2005). Briefly, mice were sensitized with two intraperitoneal administrations of 100 μl of endotoxin-free RWE (150 μg) combined with Alum adjuvant (1 mg) in a 3:1 ratio (v/v), on days 0 and 4. On day 11, mice (n=6) were challenged intranasally with RWE (100 μg). A parallel group of mice received fidarestat (7 mg/kg body wt/day) in drinking water from one day before the challenge. Control groups of mice were challenged with equivalent volumes of PBS. […]

Compound: NC(=O)[C@@H]1C[C@]2(NC(=O)NC2=O)c2cc(F)ccc2O1 [fidarestat, (2S,4S)-2-aminoformyl-6-fluoro-spiro[chroman-4,4′-imidazolidine]-2′,5′-dione]
- prevention of IL-13-induced increase in Muc5AC protein (Muc5AC): ~75%
- RWE-induced phospho-STAT-6 staining in lung epithelium (STAT-6): prevented by AR inhibition
- PAS positive cells in the airway [1]: absent
